Results reported in US20250275993A1, “GLYCOSYLATION INHIBITORS AS THERAPEUTICS FOR STROKE” (The Regents of the University of California, priority 2022, published 2025).

What was measured:
[1] = system: ERK and AKT; assay: Western blot of ERK and AKT activation in HUVEC and hDMVECs; assay type: cell-based, human; conditions: 40 μM
Protocol: (§1) Cells were allowed to reach-80% confluency in 12-well plates. […] At various time points, plates were taken out of the incubator and kept on ice. Cell monolayers were first washed once with ice-cold PBS before lysis with 250 μI of Pierce RIPA buffer (ThermoFisher Scientific, Rockford, IL) or use 50 mM Tris-HCl (pH 7.6), 150 mM NaCl, 10% Glycerol, 1% NP-40 containing protease/Phosphatase inhibitor cocktail (100×) (Cell signaling, #5872). Lysates were collected and mixed with 4× Bolt LDS Sample Buffer (Novex, Carlsbad, CA) in the presence of Halt protease inhibitors and phosphatase inhibitor cocktail (ThermoFisher scientific, #NP0007). The samples were subjected to SDS-PAGE (Bolt 4-12% Bis-Tris Plus, Invitrogen) using Bolt MES SDS running buffer or NuPAGE 3-8% Tris-Acetate gel using Tris-Acetate SDS running buffer (Novex). HUVECs (passage 6-8) were plated in EBM-2 basal medium (Lonza) with 0.2% FBS. Following overnight culture, cells were serum-starved in EBM-2 medium for 4 hrs prior to treatment with 50 ng/ml of VEGF165 or vehicle controls for various lengths. Equal amounts of protein lysates were analyzed by SDS-PAGE and blotted with the indicated antibodies. Proteins were transferred using Tris-Glycine buffer with 20% Methanol (Proteonomics grade) (Apex BioResearch Products). […]

[2] = system: BCECs; assay: Cellular uptake of ManN and conversion to ManN-6P (HPAEC-PAD); assay type: in vitro ADME, bovine
[3] = system: O-glycan of BCEC lysates; assay: O-glycan analysis in BCEC lysates (MALDI-Tof); assay type: cell-based, bovine; conditions: 40 μM ManN
Protocol: For O-glycan analysis, homogenized cell samples were treated with 50 mM NaOH in presence of 1M NaBH4 for 16 hrs at 45° C. The reaction mixture was neutralized using ice-cold 30% acetic acid slowly. The neutralized reaction mixture was then passed over Dowex 50-X cation exchange resin to remove sodium ion and lyophilized. Excess boric acid generated during neutralization was then removed by co-evaporation using acidified methanol and methanol respectively. Finally the O-glycan was purified by passing over C18 cartridge. Dried and purified O-glycan was then methylated and used for O-glycan analysis after permethylation. Permethylated samples were then dissolved in absolute methanol and mixed with SDHB (Super-DHB) MALDI matrix in 1:1 v/v ratio and spotted on maldi plate. Mass spectral data was acquired using Bruker AutoFlex mass spectrometer at positive, reflectron mode. The mass spectral data were analyzed and annotated using GlycoWork Bench software and masses matched with the proposed structures were annotated. The mono-isotopic ion intensities are taken for calculation.

[4] = system: ARPE-19 RPE cells; assay: Human RPE proliferation assay; assay type: cell-based
Protocol: (§2) Proliferation assays with fibroblasts were done in low-glucose DMEM containing 1% FBS, with or without 10 ng/ml bFGF, or 100 ng/ml human EGF and the assay was ended at day 3. ARPE-19 cells were gently lifted with 0.025% trypsin and plated in RtEGM media (Clonetics) containing 2% FBS, L-glutamine, human bFGF and GA-1000. Once cells were attached to plates, serum-free RtEGM media was used to maintain the cultures. For proliferation assays, 1500 human RPE cells were plated into 96-well plates in low-glucose DMEM containing 1% FBS. A673, U87MG, Calu6 and AML12 cells were grown until confluent and were then harvested and re-suspended in appropriate assay media. For proliferation assays, cells were plated at the density of 1000-2000 cells/well in low-glucose DMEM containing 5% FBS or otherwise stated. Bovine pituitary cells (pituitary folliculostellate cells) were isolated as previously described. For proliferation assays with human epidermal keratinocytes, human DMVECs and human dermal fibroblast cells, 1000 cells/well were plated in low-glucose DMEM containing 1% FBS with or without various growth factors. The assay was ended at day 3 for bovine pituitary cells and at day 4 for all the other cell types. […] Four days later, tumor cell growth was measured by the MTS assay (Promega, Madison, WI), a colorimetric assay that measures metabolic activity of viable cells. […]

[5] = system: human dermal fibroblasts; assay: Human dermal fibroblast proliferation assay; assay type: cell-based; conditions: alone or in combination with growth factors
Protocol: as §2

[6] = system: bFGFR 1 or β1 integrin; assay: Western blot of protein molecular mass in non-endothelial cells; assay type: cell-based; conditions: 400 μM and 2 mM
Protocol: as §1

[7] = system: skin wound; assay: Skin wound healing model (splinted wound); assay type: in vivo, mouse; conditions: topical 20 μg daily; mice; PBS group 81.5%
From the text: The model has been previously described. Briefly, C57BL/6 female mice (8-10 weeks old) were obtained from Jackson labs (Sacramento, CA). A fresh, full-thickness punch wound (4 mm diameter) using a punch (Acu Punch, Acuderm inc. Ft. Lauderdale, FL) splinted with a sterile neoprene ring (6-mm outer diameter and 4-mm inner diameter), fastened with 5-6 sutures (4-0 nylon) under the influence of Isoflurane was created on the back of the animal in a Class II Biological Safety Cabinet. For all surgical procedures, sterile technique was followed. Buprenorphine was given subcutaneously prior to awakening from anesthesia for anticipated pain. Mice were monitored until fully awake and were housed individually to minimize damage/biting/fighting to the surgical site. […] Treatment agents were prepared in PBS, sterile-filtered and 25 μl solution was applied daily directly to a wound bed for the first 4-5 days under the influence of Isoflurane, followed by daily observation. Wound closure was monitored by regular imaging and the wound area was quantified using ImageJ (National Institutes of Health, Bethesda, MD, USA). […] Epithelial gap was measured histomorphometrically using AxioVision LE Rel.4.4 software. […] Small vessels stained positive for CD31 were counted microscopically on 10 fields (20×) taken around the wound.

Row | Structure (SMILES) | activation of ERK and AKT in human ECs by glycosylation inhibitors [1] | incorporation of ManN in N-glycans ([2]; BCECs) | ManN detected in cell lysate ([2]; BCECs treated with 400 μM ManN for 2 hours) [nmol in 1 mg cell lysate] | O-glycosylation [3] | sensitivity of human RPE cells to ManN toxicity ([4]; 5 mM level of ManN) | proliferation of human RPEs ([4]; alone or in combination with growth factors) | proliferation of human dermal fibroblasts [5] | molecular mass change of bFGFR 1 or β1 integrin in non-ECs [6] | average closure of the wound on day 4 [7] [%]
1 | O=C1N[C@@H]2[C@@H](O)[C@@H](O)[C@H](O)[C@@H](CO)N2C1=O [Kif, Kifunensine, reference compound] | significantly activate ERK and AKT | – | – | – | – | – | – | – | –
2 | N[C@H](C=O)[C@@H](O)[C@H](O)[C@H](O)CO [ManN, 2-Amino-2-deoxy-D-mannose] | – | No incorporation | 0.66 | overall decrease in O-glycosylation | least sensitive ones | no increases in proliferation | no increases in proliferation | could induce molecular mass change | 75.6
